Experimental data taken from patent US20180360721A1, “PEPTIDE FOR STIMULATING MELANOGENESIS” (priority 2017, published 2018).
Where a SMILES comes first, the peptide text is derived from it.

System: B16F10 cells
Experiment: MTT assay of cell viability
Format: cell-based, mouse
Conditions: different concentrations, 24, 48 or 72 hours
Description: B16F10 is a melanoma cell line isolated from mouse skin (American Type Culture Collection, USA) and was cultured in phenol red-free Dulbecco's Modified Eagle Medium (DMEM) containing 10% (v/v) FBS and penicillin/streptomycin (100 IU/[…]) in 5% CO2 at 37° C.
The cells (2×10^3) in 100 μl complete DMEM were seeded in 96-well plates and treated with the peptide of SEQ ID NO: 1 at different concentrations. The cells treated with ddH2O was used as controls. Ten microliters of 5 mg/ml 3-(4,5-dimethyl-2-thiazolyl)-2,5-diphenyl-2H-tetrazolium bromide solution (MTT; Sigma) was added to each well and incubated at 37° C. for 3 hours. After that, 100 μl 10% SDS in 0.01N HCl was added to dissolve the MTT formazan crystals. The resultant optical density was measured by spectrophotometry at dual wavelengths, 550 and 630 nm.

For `C[C@H](NC(=O)[C@H](CO)NC(=O)[C@@H](N)CC(N)=O)C(=O)N[C@H](C(=O)N[C@@H](CCC(=O)O)C(=O)N[C@@H](CCCNC(=N)N)C(=O)N[C@@H](CCC(=O)O)C(=O)O)[C@@H](C)O` [peptide of SEQ ID NO: 1, AsnSerAlaThrGluArgGlu] (H-NSATERE-OH), the “cell viability (MTT)” value was “did not significantly affect the viability” and the “cell viability (MTT)” value (listed as peptide having the amino acid sequence of SEQ ID NO: 1) was “did not significantly affect viability”.
